# Biological target: T1, recombinant human Aggrecanase-2 Agg2-Phe628 (Homo sapiens, UniProt Q9UNA0)
# T1 sequence (Q9UNA0 262-628 limits assumed): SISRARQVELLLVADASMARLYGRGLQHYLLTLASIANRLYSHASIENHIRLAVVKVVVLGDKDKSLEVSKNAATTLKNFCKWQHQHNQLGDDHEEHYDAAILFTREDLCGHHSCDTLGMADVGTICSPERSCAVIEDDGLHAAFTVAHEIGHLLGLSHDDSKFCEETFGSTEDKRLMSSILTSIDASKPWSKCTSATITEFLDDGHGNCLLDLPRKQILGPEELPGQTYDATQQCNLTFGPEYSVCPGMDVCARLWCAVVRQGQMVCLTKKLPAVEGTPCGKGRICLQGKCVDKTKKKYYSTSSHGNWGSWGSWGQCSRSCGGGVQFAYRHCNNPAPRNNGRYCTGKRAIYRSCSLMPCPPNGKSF
# Assay: Aggrecanase 2 in vitro enzyme assay (Agg-2 FRET, quenched fluorescent peptide substrate)
# Type: biochemical
# Parameters: purified recombinant human Aggrecanase-2 Agg2-Phe628 (MW=41,737); This is a truncated form of full-length human aggrecanase-2; made in house; host or cells: CHO cells
# Details: @ 2500 nM
# Procedure: A continuous assay was used in which the substrate was a synthetic peptide containing a fluorescent group (o-aminobenzyl, Abz), which was quenched by energy transfer to a 2,4-dinitrophenyl group (Dnp). The buffer used in this assay was 50 mM HEPES, pH 7.5, 100 mM NaCl, 5 mM CaCl2, 0.1% CHAPS, 5% glycerol. The source of enzyme was purified recombinant human Aggrecanase-2 Agg2-Phe628 (MW=41,737). This is a truncated form of full-length human aggrecanase-2 that was expressed in CHO cells and purified. The final concentration of Agg2-Phe628 was 0.5 μg/ml. […] It is a synthetic peptide that is designed after a portion of brevican, one of the naturally occurring substrates of Aggrecanase-2, of the sequence Abz-[…]-Dap(Dnp)-KK—NH2 (mass=1740). The concentration of this substrate stock was spectrophotometrically determined using the extinction coefficient at 354 nm of 18,172 M^−1cm^−1. […] The final concentration of substrate in the assay was 25 μM.
# Test compounds (in duplicate) were serially diluted from 2 mM to 0.01 μM in 100% DMSO. The total reaction volume was 100 μl. The buffer and enzyme were added first followed by addition of 10× inhibitor from the dilution plate. Enzyme and buffer alone samples were included in order to obtain the maximal rate of substrate cleavage. […] Then substrate was added, mixed and the reaction monitored for 40 min at 30° C. in kinetic mode using λex: 340 nm and % λem: 420 (GeminiXS Molecular Devices).
row,Compound,inhibition at […]
1,O=C(COc1ccccc1)NC(c1ccccc1O)c1cc(Cl)c2cccnc2c1O (stereo not shown) [N-[(5-chloro-8-hydroxyquinolin-7-yl)(2-hydroxyphenyl)methyl]-2-phenoxyacetamide],62%

# Same assay, conditions: concentration not given
row,Compound,Agg-2 FRET Median PCT INHIB
1,O=C(NC(c1ccccc1)c1cc(Cl)c2cccnc2c1O)OCc1ccccc1 (stereo not shown) [benzyl [(5-chloro-8-hydroxyquinolin-7-yl)(phenyl)methyl]carbamate],46%
2,O=C(CCCc1ccccc1)NC(c1ccccc1Cl)c1cc(Cl)c2cccnc2c1O (stereo not shown) [N-[(5-chloro-8-hydroxyquinolin-7-yl)(2-chlorophenyl)methyl]-4-phenylbutanamide],48%
3,CC(C)(C)c1ccc(OCC(=O)NC(c2cccc(F)c2)c2cc(Cl)c3cccnc3c2O)cc1 (stereo not shown) [2-(4-tert-butylphenoxy)-N-[(5-chloro-8-hydroxyquinolin-7-yl)(3-fluorophenyl)methyl]acetamide],43%
4,Cc1ccccc1C(NC(=O)CCCc1ccccc1)c1cc(Cl)c2cccnc2c1O (stereo not shown) [N-[(5-chloro-8-hydroxyquinolin-7-yl)(2-methylphenyl)methyl]-4-phenylbutanamide],49%
5,COc1c(C(NC(=O)COc2ccccc2)c2ccccc2)cc(Cl)c2cccnc12 (stereo not shown) [N-[(5-chloro-8-methoxyquinolin-7-yl)(phenyl)methyl]-2-phenoxyacetamide],50%
6,Cc1ccc(C(NC(=O)CCCc2ccccc2)c2cc(Cl)c3cccnc3c2O)cc1 (stereo not shown) [N-[(5-chloro-8-hydroxyquinolin-7-yl)(4-methylphenyl)methyl]-4-phenylbutanamide],41%

# Same assay, conditions: read-out: Agg2 IC50
row,Compound,IC50
1,"Cc1ccc(C(NC(=O)COc2ccccc2)c2cc(Cl)c3cccnc3c2O)cc1C (stereo not shown) [N-[(5-chloro-8-hydroxyquinolin-7-yl)(3,4-dimethylphenyl)methyl]-2-phenoxyacetamide]",1.5 µM
2,O=C(NC(c1ccccc1)c1cc(Cl)c2cccnc2c1O)OCc1ccccc1 (stereo not shown) [benzyl [(5-chloro-8-hydroxyquinolin-7-yl)(phenyl)methyl]carbamate],> 67 µM
3,"O=C(COc1ccccc1)NC(c1cc2n(n1)CCC2)c1cc(Cl)c2cccnc2c1O (stereo not shown) [Example 179, N-[(5-chloro-8-hydroxyquinolin-7-yl)(5,6-dihydro-4H-pyrrolo[1,2-b]pyrazol-2-yl)methyl]-2-phenoxyacetamide]",~2.5 µM

# Same assay, conditions: read-out: Agg-2 FRET Median IC50
row,Compound,IC50
1,O=C(CCCc1ccccc1)NC(c1cccc([N+](=O)[O-])c1)c1cc(Cl)c2cccnc2c1O (stereo not shown) [N-[(5-chloro-8-hydroxyquinolin-7-yl)(3-nitrophenyl)methyl]-4-phenylbutanamide],1.15 µM
2,"O=C(CNc1cccnc1)NC(c1ccccc1Cl)c1cc(Cl)c2cccnc2c1O (stereo not shown) [Example 18, N^1-[(5-chloro-8-hydroxyquinolin-7-yl)(2-chlorophenyl)methyl]-N^2-pyridin-3-ylglycinamide]",16.9 µM
3,Cc1ccccc1C(NC(=O)COc1ccccc1)c1cc(Br)c2cccnc2c1O (stereo not shown) [N-[(5-bromo-8-hydroxyquinolin-7-yl)(2-methylphenyl)methyl]-2-phenoxyacetamide],1 µM
4,"Cc1ccc(C(NC(=O)CN(C)c2ccccc2)c2cc(Cl)c3cccnc3c2O)cc1 (stereo not shown) [Example 58, N^1-[(5-chloro-8-hydroxyquinolin-7-yl)(4-methylphenyl)methyl]-N^2-methyl-N^2-phenylglycinamide]",0.776 µM
5,Cc1ccccc1C(NC(=O)COc1ccccc1)c1cc([N+](=O)[O-])c2cccnc2c1O (stereo not shown) [N-[(8-hydroxy-5-nitroquinolin-7-yl)(2-methylphenyl)methyl]-2-phenoxyacetamide],0.854 µM
6,"O=C(COc1ccccc1)NC(c1ccc(Cl)c(Cl)c1)c1cc(Cl)c2cccnc2c1O (stereo not shown) [N-[(5-chloro-8-hydroxyquinolin-7-yl)(3,4-dichlorophenyl)methyl]-2-phenoxyacetamide]",1.36 µM
7,N-[(8-hydroxyquinolin-7-yl)(4-methoxyphenyl)methyl]-2-(4-phenoxyphenoxy)acetamide [Example 76],3.22 µM
8,"COc1cc(OC)cc(C(NC(=O)COc2ccccc2)c2cc(Cl)c3cccnc3c2O)c1 (stereo not shown) [N-[(5-chloro-8-hydroxyquinolin-7-yl)(3,5-dimethoxyphenyl)methyl]-2-phenoxyacetamide]",1.09 µM
9,"Cc1ccc(C(NC(=O)CN(C)Cc2ccccc2)c2cc(Cl)c3cccnc3c2O)cc1 (stereo not shown) [Example 59, N^2-benzyl-N^1-[(5-chloro-8-hydroxyquinolin-7-yl)(4-methylphenyl)methyl]-N^2-methylglycinamide]",1.28 µM
10,"CN(CC(=O)NC(c1ccccc1Cl)c1cc(Cl)c2cccnc2c1O)Cc1ccccc1 (stereo not shown) [Example 52, N^2-benzyl-N^1-[(5-chloro-8-hydroxyquinolin-7-yl)(2-chlorophenyl)methyl]-N^2-methylglycinamide]",1.31 µM
11,Cc1ccc(C(NC(=O)COc2ccccc2)c2ccc3cccnc3c2O)cc1 (stereo not shown) [N-[(8-hydroxyquinolin-7-yl)(4-methylphenyl)methyl]-2-phenoxyacetamide],3.01 µM
12,O=C(COc1ccccc1)NC(c1ccc(F)c(Cl)c1)c1cc(Cl)c2cccnc2c1O (stereo not shown) [N-[(3-chloro-4-fluorophenyl)(5-chloro-8-hydroxyquinolin-7-yl)methyl]-2-phenoxyacetamide],1.04 µM
13,"CN(CC(=O)NC(c1cccc([N+](=O)[O-])c1)c1cc(Cl)c2cccnc2c1O)c1ccccc1 (stereo not shown) [Example 62, N^1-[(5-chloro-8-hydroxyquinolin-7-yl)(3-nitrophenyl)methyl]-N^2-methyl-N^2-phenylglycinamide]",0.559 µM
14,O=C(COc1ccccc1)NC(c1ccccc1Cl)c1ccc2cccnc2c1O (stereo not shown) [N-[(2-chlorophenyl)(8-hydroxyquinolin-7-yl)methyl]-2-phenoxyacetamide],2.5 µM
15,COc1ccc(OCC(=O)NC(c2ccccc2)c2ccc3cccnc3c2O)cc1 (stereo not shown) [N-[(8-hydroxyquinolin-7-yl)(phenyl)methyl]-2-(4-methoxyphenoxy)acetamide],3.34 µM

# Biological target: T2, Agg-1 (Homo sapiens, UniProt O75173)
# T2 sequence (O75173 213-837): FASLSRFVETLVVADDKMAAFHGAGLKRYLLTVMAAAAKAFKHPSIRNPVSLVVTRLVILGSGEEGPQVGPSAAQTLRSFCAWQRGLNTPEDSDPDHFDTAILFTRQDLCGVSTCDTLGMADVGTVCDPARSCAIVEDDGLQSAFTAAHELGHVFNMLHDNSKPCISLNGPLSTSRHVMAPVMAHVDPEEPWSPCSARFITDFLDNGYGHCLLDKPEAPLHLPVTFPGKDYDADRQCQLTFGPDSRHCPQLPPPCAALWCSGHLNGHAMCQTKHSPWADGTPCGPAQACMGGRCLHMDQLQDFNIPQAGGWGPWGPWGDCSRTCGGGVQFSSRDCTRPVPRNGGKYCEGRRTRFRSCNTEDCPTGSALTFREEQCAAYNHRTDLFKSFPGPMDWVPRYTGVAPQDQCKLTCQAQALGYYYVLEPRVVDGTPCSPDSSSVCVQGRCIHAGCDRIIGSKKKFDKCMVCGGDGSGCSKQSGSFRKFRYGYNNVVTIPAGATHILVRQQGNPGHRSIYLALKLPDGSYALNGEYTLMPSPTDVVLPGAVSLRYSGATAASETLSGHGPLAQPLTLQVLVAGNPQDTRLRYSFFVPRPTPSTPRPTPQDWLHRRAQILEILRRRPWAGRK
# Assay: Agg-1 FRET assay
# Type: biochemical
# Details: @ 22000 nM; read-out: Agg1 %
# From the text: The Agg-1/Agg-2 FRET data for N-[(8-hydroxyquinolin-2-yl)(phenyl)methyl]-2-phenoxyacetamide and 2-{[(phenoxyacetyl)amino](phenyl)methyl}quinolin-8-yl phenoxyacetate is presented in Table 1.
row,Compound,inhibition at 22 µM
1,C=CCOc1ccc(C(NC(=O)COc2ccccc2)c2cc(Cl)c3cccnc3c2O)cc1 (stereo not shown) [N-[[4-(allyloxy)phenyl](5-chloro-8-hydroxyquinolin-7-yl)methyl]-2-phenoxyacetamide],52%

# Same assay, conditions: @ 22200 nM; read-out: Agg1 %
row,Compound,inhibition at 22.2 µM
1,O=C(COc1ccccc1)NC(c1ccccc1F)c1cc(Cl)c2cccnc2c1O (stereo not shown) [N-[(5-chloro-8-hydroxyquinolin-7-yl)(2-fluorophenyl)methyl]-2-phenoxyacetamide],46%

# Same assay, conditions: read-out: Agg1 IC50
row,Compound,IC50
1,"Cc1ccc(C(NC(=O)COc2ccccc2)c2cc(Cl)c3cccnc3c2O)cc1C (stereo not shown) [N-[(5-chloro-8-hydroxyquinolin-7-yl)(3,4-dimethylphenyl)methyl]-2-phenoxyacetamide]",66 to 200 µM
2,O=C(NC(c1ccccc1)c1cc(Cl)c2cccnc2c1O)OCc1ccccc1 (stereo not shown) [benzyl [(5-chloro-8-hydroxyquinolin-7-yl)(phenyl)methyl]carbamate],> 100 µM
3,"O=C(COc1ccccc1)NC(c1cc2n(n1)CCC2)c1cc(Cl)c2cccnc2c1O (stereo not shown) [Example 179, N-[(5-chloro-8-hydroxyquinolin-7-yl)(5,6-dihydro-4H-pyrrolo[1,2-b]pyrazol-2-yl)methyl]-2-phenoxyacetamide]",> 20 µM
4,O=C(COc1ccccc1)NC(c1ccc([N+](=O)[O-])cc1)c1cc(Cl)c2cccnc2c1O (stereo not shown) [N-[(5-chloro-8-hydroxyquinolin-7-yl)(4-nitrophenyl)methyl]-2-phenoxyacetamide],> 20 µM
5,O=C(COc1ccccc1)NC(c1ccccc1)c1cc(Cl)c2cccnc2c1O (stereo not shown) [N-[(5-chloro-8-hydroxyquinolin-7-yl)(phenyl)methyl]-2-phenoxyacetamide],> 22 µM
6,O=C(COc1ccccc1)NC(c1ccccc1)c1cc([N+](=O)[O-])c2cccnc2c1O (stereo not shown) [N-[(8-hydroxy-5-nitroquinolin-7-yl)(phenyl)methyl]-2-phenoxyacetamide],19.3 µM
7,O=C(COc1ccccc1)NC(c1ccccc1Cl)c1cc([N+](=O)[O-])c2cccnc2c1O (stereo not shown) [N-[(2-chlorophenyl)(8-hydroxy-5-nitroquinolin-7-yl)methyl]-2-phenoxyacetamide],11.4 µM

# — patent US20080269213A1, “8-Hydroxyquinoline compounds and methods thereof” (Wyeth, priority 2006, published 2008)
